The values that follow are results of earlier work, collected in US8541025B2, “Co-crystals and pharmaceutical formulations comprising the same” (Vertex Pharmaceuticals Incorporated, priority 2008, dated 2013).

Like-named read-outs stand apart in the source and are kept apart here.

The target in the series is hepatitis C virus ("HCV") NS3/4A protease (Hepatitis C virus genotype 1a, UniProt P27958).
Chain of hepatitis C virus ("HCV") NS3/4A protease (P27958 1027-1657): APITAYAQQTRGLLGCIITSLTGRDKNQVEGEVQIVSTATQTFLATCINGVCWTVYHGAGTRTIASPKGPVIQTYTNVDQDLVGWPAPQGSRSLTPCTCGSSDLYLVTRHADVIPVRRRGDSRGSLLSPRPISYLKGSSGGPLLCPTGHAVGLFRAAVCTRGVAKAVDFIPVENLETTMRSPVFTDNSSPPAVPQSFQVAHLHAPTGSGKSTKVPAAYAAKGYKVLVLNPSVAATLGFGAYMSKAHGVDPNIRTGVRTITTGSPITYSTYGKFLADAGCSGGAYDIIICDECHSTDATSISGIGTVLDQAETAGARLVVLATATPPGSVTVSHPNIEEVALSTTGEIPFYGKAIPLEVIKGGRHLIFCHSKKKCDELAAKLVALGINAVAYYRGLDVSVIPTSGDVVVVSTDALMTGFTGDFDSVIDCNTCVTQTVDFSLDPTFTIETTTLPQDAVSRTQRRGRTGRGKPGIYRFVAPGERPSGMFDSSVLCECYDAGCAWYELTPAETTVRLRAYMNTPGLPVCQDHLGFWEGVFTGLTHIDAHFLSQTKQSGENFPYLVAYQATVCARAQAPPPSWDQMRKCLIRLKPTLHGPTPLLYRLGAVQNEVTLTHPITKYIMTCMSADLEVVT
Chain of hepatitis C virus ("HCV") NS3/4A protease (P27958 1658-1711): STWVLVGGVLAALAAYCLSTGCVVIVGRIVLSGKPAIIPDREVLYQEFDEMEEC

What is called Ki is the dissociation constant of the complex between target and ligand, obtained from inhibition or displacement. `CC[C@H](NC(=O)[C@@H]1[C@H]2CCC[C@H]2CN1C(=O)[C@@H](NC(=O)C(NC(=O)c1cnccn1)C1CCCCC1)C(C)(C)C)C(=O)C(=O)NC1CC1` (some centres unmarked) [VX-950]: the Ki by setting is: (competitive, reversible inhibitor, read-out: steady state binding constant (ki*)) 3 nM; (read-out: Ki) 8 nM.
